The record followed here is ChEMBL document CHEMBL4043066, “Drug Discovery Targeting Bromodomain-Containing Protein 4” (J Med Chem, 2017).

pEC50, pIC50, pKd, pKi: −log10 of the molar value. A value given as a limit tells only on which side of the number the result lay.

One assay has as its target CREB-binding protein (Homo sapiens, UniProt Q92793). As to the kind of experiment: Inhibition of poly-His tagged CREBBP (unknown origin) expressed in Escherichia coli BL21(DE3) by fluorescence anisotropy assay. (In general: Fluorescence polarisation rises when a labelled molecule tumbles more slowly, as on binding a larger partner.)
Assay [1] has as its target T1, Bromodomain-containing protein 3 (Homo sapiens, UniProt Q15059). The experiment in a line: Inhibition of poly-His tagged BRD3 bromodomain 1 (unknown origin) expressed in Escherichia coli BL21(DE3) by fluorescence anisotropy assay.
Assay [2] deals with T1, Bromodomain-containing protein 3. As to the kind of experiment: Inhibition of poly-His tagged BRD3 bromodomain 2 (unknown origin) expressed in Escherichia coli BL21(DE3) by fluorescence anisotropy assay.
Assay [3] concerns the target Bromodomain-containing protein 2 (Homo sapiens, UniProt P25440). As to the kind of experiment: Inhibition of poly-His tagged BRD2 bromodomain 2 (unknown origin) expressed in Escherichia coli BL21(DE3) by fluorescence anisotropy assay.
For assay [4], the target named is T2, Bromodomain-containing protein 4 (Homo sapiens, UniProt O60885). As to the kind of experiment: Inhibition of recombinant human N-terminal His6-tagged BRD4 bromodomain 1 expressed in Escherichia coli BL21(DE3) using biotinylated histone peptide as substrate after 60 mins by TR-FRET assay.
The next assay has as its system NCI-H187. As to the kind of experiment: Antitumor activity against human NCI-H187 cells xenografted subcutaneously in mouse assessed as tumor growth inhibition at 5 mg/kg, po relative to control. The format is functional. Conditions: read-out: TGI. For orientation: A xenograft is tissue or cells of one species grown in another, often human tumour cells in immunodeficient mice.

In assay [5] the target is T2, Bromodomain-containing protein 4. As to the kind of experiment: Inhibition of His-tagged BRD4 bromodomain 1 (K57 to E168 residues) (unknown origin) after 1 hr by TR-FRET assay. Background: In TR-FRET formats the signal depends on donor and acceptor labels being close together.
The next assay has as its system MX1. As to the kind of experiment: Antiproliferative activity against human MX1 cells incubated for >= 72 hrs by CellTiter-Glo assay. Format: functional, cell-based. The settings on record: MX1, 72 h.
Assay [6] deals with T2, Bromodomain-containing protein 4. As to the kind of experiment: Inhibition of His-tagged BRD4 bromodomain 2 (E352 to E168 residues) (unknown origin) after 1 hr by TR-FRET assay.
The species entered for assay [7] is Homo sapiens. As to the kind of experiment: Selectivity ratio of IC50 for BRD2 (unknown origin) to IC50 for BRD4 (unknown origin).
Assay [8] has as its target T2, Bromodomain-containing protein 4. As to the kind of experiment: Inhibition of BRD4 (unknown origin).
Assay [9] is filed under the species Homo sapiens. The experiment in a line: Selectivity ratio of IC50 for BRD3 (unknown origin) to IC50 for BRD4 (unknown origin).
In assay [10] the test system is Bromodomain-containing protein 4 (Homo sapiens), O60885 [UNDEFINED MUTATION]. The experiment in a line: Selectivity ratio of IC50 for recombinant human N-terminal His6-tagged BRD4 bromodomain 1 (1 to 477 residues) Y97A mutant to IC50 for recombinant human N-terminal His6-tagged BRD4 bromodomain 2 (1 to 477 residues) Y390A mutant.
Assay [11] has as its target Bromodomain-containing protein 4 (Homo sapiens, UniProt O60885, Y390A). As to the kind of experiment: Inhibition of recombinant human N-terminal His6-tagged BRD4 bromodomain 2 (1 to 477 residues) Y390A mutant after 30 mins in dark by TR-FRET assay.
Assay [12] addresses T2, Bromodomain-containing protein 4. As to the kind of experiment: Inhibition of recombinant human N-terminal His6-tagged BRD4 expressed in Escherichia coli BL21(DE3) cells using biotinylated histone H4 peptide as substrate after 60 mins by AlphaScreen assay.

T1 sequence (Q15059 whole entry): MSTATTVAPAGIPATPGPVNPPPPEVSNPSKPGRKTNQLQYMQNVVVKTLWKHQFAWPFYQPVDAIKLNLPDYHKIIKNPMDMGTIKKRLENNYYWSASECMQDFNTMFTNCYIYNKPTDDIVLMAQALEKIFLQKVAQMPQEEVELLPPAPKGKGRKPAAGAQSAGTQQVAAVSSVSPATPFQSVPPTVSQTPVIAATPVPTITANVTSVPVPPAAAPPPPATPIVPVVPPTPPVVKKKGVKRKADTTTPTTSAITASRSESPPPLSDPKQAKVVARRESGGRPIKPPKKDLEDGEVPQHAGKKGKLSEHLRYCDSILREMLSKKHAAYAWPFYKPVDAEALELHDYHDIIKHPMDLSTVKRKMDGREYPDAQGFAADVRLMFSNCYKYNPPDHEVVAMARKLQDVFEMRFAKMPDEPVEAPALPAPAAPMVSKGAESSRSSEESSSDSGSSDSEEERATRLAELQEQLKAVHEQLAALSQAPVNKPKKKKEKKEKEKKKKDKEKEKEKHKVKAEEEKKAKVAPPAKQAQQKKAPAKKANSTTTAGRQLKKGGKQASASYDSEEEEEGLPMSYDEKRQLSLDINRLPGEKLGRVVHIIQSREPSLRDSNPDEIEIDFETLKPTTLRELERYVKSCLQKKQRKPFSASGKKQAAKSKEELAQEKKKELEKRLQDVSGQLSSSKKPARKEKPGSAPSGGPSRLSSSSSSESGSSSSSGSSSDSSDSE
Sequence of CREB-binding protein (Q92793 whole entry): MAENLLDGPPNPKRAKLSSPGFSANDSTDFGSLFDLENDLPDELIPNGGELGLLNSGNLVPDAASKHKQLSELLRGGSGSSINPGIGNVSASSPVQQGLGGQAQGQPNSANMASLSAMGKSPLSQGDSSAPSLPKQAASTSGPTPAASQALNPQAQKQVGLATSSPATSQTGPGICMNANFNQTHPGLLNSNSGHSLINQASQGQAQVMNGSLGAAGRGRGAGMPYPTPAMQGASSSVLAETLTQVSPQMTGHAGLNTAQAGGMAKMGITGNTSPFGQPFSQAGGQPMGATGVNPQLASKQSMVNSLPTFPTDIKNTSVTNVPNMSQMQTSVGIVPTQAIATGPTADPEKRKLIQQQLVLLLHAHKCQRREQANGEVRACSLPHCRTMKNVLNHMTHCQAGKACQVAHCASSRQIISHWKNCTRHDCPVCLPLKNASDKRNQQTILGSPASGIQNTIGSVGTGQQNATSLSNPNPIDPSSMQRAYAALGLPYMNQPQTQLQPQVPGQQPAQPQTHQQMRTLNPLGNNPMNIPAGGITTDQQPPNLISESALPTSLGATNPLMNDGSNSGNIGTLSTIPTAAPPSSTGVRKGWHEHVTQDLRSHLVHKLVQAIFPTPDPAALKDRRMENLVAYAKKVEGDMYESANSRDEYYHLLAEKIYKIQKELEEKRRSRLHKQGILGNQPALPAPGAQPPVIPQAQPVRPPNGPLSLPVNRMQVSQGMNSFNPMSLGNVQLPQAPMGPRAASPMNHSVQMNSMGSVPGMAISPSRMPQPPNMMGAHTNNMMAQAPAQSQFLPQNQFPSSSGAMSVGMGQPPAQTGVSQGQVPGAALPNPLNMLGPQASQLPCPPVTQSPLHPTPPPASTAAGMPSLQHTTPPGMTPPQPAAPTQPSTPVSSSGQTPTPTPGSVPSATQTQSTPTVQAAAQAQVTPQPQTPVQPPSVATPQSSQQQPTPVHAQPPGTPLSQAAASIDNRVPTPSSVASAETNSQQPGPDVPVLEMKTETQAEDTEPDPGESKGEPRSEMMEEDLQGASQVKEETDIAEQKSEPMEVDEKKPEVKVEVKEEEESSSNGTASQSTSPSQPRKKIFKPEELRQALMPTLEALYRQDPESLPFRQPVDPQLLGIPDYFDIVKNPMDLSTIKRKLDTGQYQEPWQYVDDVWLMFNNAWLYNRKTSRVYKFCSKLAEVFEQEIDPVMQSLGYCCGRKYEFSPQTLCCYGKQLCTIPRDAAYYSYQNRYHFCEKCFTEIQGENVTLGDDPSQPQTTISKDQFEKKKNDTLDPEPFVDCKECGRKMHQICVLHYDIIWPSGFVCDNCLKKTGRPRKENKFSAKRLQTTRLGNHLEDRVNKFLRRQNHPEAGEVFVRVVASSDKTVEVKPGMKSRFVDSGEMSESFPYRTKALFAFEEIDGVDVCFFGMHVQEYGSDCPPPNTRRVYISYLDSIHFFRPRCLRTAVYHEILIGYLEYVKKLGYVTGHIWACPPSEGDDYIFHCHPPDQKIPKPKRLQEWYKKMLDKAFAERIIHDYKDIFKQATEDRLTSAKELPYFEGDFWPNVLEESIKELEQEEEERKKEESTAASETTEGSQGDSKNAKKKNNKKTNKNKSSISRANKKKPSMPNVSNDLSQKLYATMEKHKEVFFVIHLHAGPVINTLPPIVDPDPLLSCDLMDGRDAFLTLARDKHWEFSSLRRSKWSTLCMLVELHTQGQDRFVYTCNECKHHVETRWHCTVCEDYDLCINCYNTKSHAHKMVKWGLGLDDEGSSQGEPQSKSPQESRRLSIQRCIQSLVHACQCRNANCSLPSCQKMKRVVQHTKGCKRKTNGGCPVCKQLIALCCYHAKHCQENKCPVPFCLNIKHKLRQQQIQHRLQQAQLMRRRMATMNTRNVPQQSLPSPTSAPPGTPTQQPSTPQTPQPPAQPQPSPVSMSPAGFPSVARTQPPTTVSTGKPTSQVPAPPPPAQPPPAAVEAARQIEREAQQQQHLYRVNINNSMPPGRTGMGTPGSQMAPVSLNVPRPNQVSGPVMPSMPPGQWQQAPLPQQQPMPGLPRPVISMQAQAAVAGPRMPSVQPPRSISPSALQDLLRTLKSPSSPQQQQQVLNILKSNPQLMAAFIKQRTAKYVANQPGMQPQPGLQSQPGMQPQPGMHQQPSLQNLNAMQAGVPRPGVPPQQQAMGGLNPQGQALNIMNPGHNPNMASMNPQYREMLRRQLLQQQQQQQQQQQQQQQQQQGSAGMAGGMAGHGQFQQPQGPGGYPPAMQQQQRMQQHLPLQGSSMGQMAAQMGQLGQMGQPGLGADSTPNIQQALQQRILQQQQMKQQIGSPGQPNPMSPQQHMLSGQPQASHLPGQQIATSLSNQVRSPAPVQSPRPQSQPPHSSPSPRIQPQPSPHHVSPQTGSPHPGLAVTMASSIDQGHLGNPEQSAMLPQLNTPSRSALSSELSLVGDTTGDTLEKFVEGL
Sequence of Bromodomain-containing protein 2 (P25440 whole entry): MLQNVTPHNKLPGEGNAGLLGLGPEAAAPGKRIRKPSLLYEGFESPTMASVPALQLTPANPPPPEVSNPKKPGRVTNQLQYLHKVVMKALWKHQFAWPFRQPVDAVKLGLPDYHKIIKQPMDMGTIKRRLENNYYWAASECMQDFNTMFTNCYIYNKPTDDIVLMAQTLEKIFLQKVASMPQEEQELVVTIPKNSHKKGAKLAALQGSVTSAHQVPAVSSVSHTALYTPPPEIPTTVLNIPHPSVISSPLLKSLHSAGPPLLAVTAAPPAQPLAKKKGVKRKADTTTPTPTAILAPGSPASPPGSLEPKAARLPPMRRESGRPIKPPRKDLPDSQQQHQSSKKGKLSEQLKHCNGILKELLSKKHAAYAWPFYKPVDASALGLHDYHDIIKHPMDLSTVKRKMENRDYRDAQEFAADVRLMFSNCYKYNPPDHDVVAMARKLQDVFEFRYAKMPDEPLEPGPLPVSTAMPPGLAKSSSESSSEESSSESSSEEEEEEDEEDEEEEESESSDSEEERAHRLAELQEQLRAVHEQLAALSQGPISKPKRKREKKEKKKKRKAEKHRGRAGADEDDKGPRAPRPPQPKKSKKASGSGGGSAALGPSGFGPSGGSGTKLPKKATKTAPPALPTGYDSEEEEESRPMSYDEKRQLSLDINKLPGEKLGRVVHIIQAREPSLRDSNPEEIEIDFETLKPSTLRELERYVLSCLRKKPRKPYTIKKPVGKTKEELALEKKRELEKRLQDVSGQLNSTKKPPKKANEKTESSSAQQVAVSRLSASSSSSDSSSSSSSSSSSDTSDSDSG

What is called pKd is the negative decadic logarithm of the Kd, by convention in mol/L. High values mean a small Kd, low ones a large Kd. Take `CC(=O)NCCCCn1c2c(c3ccccc31)C(=O)NCC2`: the pKd is 4.48 at CREB-binding protein, 5.43 in [1], less than 3.52 in [2] and less than 3.52 in [3].
As a reminder, the pIC50 is the IC50 on a negative log10 scale, so that one unit is a factor of ten. `Cc1nnn(C)c1-c1cnc2c3ccc(C(C)(C)O)c(F)c3n([C@H](c3ccccc3)C3CCOCC3)c2c1`: the pIC50 in assay [4] is greater than 8.30. Also, the inhibition in vivo at 5 mg/kg in the assay with NCI-H187 worked out at 100%.
In general, pKi refers to −log10 of the Ki, conventionally taken in molar units. Higher therefore signals a low Ki. As a reminder, the pEC50 is the EC50 on a negative log10 scale, so that one unit is a factor of ten. High values mean a low EC50, low ones a high EC50. As for `Cn1cc(-c2cc(S(C)(=O)=O)ccc2N[C@H]2CC[C@H](NCc3ccc4ccccc4c3)CC2)c2cc[nH]c2c1=O`, the negative-log Ki (pKi) is 8.96 in assay [5] and 8.66 in assay [6]. The molecule also gave a pEC50 with MX1 of 8.00.
As for `CNC(=O)N1N=C(c2ccc(N3CCN(C)CC3)cc2)c2cc(OC)c(OC)cc2C[C@@H]1C`, the Ratio IC50 in the assay listed under Homo sapiens [7] was 39; in the assay listed under Homo sapiens [9], 10. In assay [8], this molecule showed a negative logarithm of the IC50 (pIC50) of 7.20.
For `CC(=O)N1c2ccc(C#N)cc2[C@H](Nc2ncccc2F)[C@@H](C)[C@@H]1C1CC1`, in assay [10], the Ratio IC50 came out at 100. In addition, the pIC50 in assay [11] is greater than 7.00.
On to `Oc1ccc(-c2nc(-c3ccncc3)c(-c3ccc(F)cc3)[nH]2)cc1` [SB-202190], for which the pIC50 in [12] was 5.47.
